We go through 5 compounds from ChEMBL document CHEMBL2331529, “Design and Synthesis of Potent Bivalent Peptide Agonists Targeting the EphA2 Receptor” (ACS Med Chem Lett, 2013).

pIC50: −log10 of the molar value. Active and inactive are the calls of the source. The calls are words filed in the database; no cut-off is given here.

One test concerns the target Ephrin type-A receptor 2 (Homo sapiens, UniProt P29317). Kind of test: Agonist activity at IgG1 Fc region fused-immobilized EphA2 ectodomain (unknown origin) assessed as inhibition of EphA2/ephrin-A5 AP interaction incubated for 3 hrs by ELISA. For orientation: ELISA stands for enzyme-linked immunosorbent assay.
Test [1] has as its target Ephrin type-A receptor 4 (Homo sapiens) (UniProt P54764). Kind of test: Agonist activity at IgG1 Fc region fused-immobilized EphA4 (unknown origin) assessed as inhibition of EphA4/ephrin-A5 AP interaction at 10 uM incubated for 3 hrs by ELISA.
Test [2] addresses T1, Ephrin type-B receptor 2 (Homo sapiens) (UniProt P29323).
T1 sequence (whole entry): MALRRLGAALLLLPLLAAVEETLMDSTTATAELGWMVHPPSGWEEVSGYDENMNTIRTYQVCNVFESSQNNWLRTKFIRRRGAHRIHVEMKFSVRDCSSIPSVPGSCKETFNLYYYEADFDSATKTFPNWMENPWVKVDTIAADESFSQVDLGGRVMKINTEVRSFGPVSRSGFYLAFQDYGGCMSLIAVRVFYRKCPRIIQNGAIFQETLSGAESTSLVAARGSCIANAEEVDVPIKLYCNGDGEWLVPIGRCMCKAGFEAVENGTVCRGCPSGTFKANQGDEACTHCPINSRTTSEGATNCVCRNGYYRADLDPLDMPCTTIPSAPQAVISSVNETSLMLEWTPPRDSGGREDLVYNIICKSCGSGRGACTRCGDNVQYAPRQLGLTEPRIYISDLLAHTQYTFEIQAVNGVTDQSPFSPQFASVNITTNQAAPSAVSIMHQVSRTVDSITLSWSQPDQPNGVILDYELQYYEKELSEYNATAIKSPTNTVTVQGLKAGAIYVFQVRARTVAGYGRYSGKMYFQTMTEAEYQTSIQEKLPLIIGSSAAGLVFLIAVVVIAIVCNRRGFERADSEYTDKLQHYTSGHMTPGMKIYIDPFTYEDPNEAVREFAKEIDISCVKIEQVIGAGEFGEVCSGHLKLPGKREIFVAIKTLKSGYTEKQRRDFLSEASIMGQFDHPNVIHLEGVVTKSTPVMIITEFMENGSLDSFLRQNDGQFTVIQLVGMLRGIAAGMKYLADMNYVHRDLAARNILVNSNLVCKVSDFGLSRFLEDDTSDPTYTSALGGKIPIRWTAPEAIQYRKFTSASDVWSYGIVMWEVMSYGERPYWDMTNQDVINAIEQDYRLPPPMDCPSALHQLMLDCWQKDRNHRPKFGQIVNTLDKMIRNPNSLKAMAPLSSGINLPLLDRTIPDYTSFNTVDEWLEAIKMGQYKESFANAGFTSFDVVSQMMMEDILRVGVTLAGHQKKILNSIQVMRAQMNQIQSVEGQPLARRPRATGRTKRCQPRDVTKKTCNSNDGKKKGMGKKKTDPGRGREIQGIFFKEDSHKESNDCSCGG
Nature of the test: Agonist activity at IgG1 Fc region fused-immobilized EphB2 (unknown origin) assessed as inhibition of EphB2/ephrin-B2 AP interaction at 10 uM incubated for 3 hrs by ELISA.

Ephrin type-A receptor 2, sequence (P29317 whole entry, the tested form may be a part): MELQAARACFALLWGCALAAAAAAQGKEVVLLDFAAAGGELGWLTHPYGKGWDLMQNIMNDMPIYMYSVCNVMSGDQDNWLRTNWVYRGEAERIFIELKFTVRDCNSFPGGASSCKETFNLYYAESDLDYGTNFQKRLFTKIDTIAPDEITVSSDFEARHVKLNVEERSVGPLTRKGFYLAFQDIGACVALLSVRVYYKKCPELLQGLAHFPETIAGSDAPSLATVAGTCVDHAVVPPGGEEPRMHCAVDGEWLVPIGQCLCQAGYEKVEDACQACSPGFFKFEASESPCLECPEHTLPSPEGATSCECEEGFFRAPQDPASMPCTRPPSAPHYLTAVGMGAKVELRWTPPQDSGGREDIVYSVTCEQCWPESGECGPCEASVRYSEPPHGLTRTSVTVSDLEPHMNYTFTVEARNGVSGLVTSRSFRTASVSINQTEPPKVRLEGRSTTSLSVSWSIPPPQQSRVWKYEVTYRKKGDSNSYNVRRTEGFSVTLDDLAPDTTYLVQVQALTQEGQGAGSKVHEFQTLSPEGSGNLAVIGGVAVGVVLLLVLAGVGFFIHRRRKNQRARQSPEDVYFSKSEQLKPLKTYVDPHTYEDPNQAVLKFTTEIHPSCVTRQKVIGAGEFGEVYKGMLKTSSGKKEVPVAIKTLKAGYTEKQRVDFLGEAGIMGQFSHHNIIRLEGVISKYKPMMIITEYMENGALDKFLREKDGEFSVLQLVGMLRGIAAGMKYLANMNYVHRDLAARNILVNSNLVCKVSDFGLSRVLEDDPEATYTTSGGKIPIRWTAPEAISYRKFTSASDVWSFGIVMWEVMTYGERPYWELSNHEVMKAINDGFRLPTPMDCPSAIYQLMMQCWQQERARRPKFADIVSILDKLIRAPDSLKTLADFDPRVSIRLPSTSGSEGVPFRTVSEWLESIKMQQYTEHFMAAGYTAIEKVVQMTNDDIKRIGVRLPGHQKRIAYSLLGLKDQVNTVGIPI
Ephrin type-A receptor 4 (Homo sapiens), sequence (P54764 whole entry, the tested form may be a part): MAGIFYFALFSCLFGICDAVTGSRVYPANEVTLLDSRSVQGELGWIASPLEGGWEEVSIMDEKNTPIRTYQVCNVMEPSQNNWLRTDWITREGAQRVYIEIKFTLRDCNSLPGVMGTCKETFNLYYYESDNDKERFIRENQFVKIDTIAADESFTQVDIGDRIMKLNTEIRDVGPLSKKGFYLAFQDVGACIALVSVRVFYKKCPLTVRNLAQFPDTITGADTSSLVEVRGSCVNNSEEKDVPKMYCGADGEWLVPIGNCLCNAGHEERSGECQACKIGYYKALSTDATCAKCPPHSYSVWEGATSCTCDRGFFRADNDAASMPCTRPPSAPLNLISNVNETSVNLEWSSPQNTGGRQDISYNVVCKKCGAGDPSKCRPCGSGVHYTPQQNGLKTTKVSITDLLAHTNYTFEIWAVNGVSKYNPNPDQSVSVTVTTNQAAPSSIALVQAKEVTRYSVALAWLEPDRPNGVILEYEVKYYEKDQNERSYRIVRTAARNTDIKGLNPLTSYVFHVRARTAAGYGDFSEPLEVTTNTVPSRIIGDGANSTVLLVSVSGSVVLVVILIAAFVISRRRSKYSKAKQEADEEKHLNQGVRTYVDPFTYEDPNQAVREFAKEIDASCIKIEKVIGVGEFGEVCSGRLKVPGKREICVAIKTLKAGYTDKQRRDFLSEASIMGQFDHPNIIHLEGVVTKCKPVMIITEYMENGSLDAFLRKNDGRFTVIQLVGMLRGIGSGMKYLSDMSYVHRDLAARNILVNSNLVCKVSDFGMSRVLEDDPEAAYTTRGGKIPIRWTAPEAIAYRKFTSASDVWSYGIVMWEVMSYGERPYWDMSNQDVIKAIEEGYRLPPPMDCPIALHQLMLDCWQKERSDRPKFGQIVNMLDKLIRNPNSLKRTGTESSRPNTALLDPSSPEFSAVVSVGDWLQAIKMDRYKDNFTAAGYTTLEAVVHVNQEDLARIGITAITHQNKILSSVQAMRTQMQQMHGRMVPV

One may read the pIC50 as the IC50 on a negative log10 scale, so that one unit is a factor of ten. As to H-SALAYPGAVSYR-OH, the pIC50 at Ephrin type-A receptor 2 is at most 4.00.
For the compound `CC(C)C[C@H](NC(=O)[C@H](C)NC(=O)[C@H](Cc1ccc(O)cc1)NC(=O)[C@@H]1CCCN1C(=O)CNC(=O)[C@H](C)NC(=O)[C@@H](NC(=O)[C@H](CO)NC(=O)[C@H](Cc1ccc(O)cc1)NC(=O)[C@H](CCCNC(=N)N)NC(=O)[C@H](CCCCNC(=O)CCCCCN)NC(=O)[C@H](CCCNC(=N)N)NC(=O)[C@H](Cc1ccc(O)cc1)NC(=O)[C@H](CO)NC(=O)[C@@H](NC(=O)[C@H](C)NC(=O)CNC(=O)[C@@H]1CCCN1C(=O)[C@H](Cc1ccc(O)cc1)NC(=O)[C@H](C)NC(=O)[C@H](CC(C)C)NC(=O)[C@H](Cc1c[nH]c2ccccc12)NC(=O)[C@@H](N)CO)C(C)C)C(C)C)C(=O)N[C@@H](Cc1c[nH]c2ccccc12)C(=O)N[C@@H](CO)C(=O)O`, the inhibition result in test [1] and in test [2] was “Active” each time.
Turning to H-SWLSYPGAVSYR-OH, on Ephrin type-A receptor 2, the pIC50 is below 4.00.
Turning to H-SWLAYAGAVSYR-OH, the pIC50 on Ephrin type-A receptor 2 was at most 4.00.
The same measure, in the same setting: the same measure for H-SWLAAPGAVSYR-OH: at most 4.00.
